Test results reported in patent US20190316081A1, “MEDIA AND METHODS FOR EXPANSION OF PLURIPOTENT STEM CELLS” (priority 2018, published 2019).

Tests used:
Format in all cases: cell-based, human
5i-hPSC = experiment: Medium component screen and PD dose response on OCT4/SOX2 pluripotent phenotype, feeder-free adherent and suspension
Procedure: For intracellular staining, dissociated cells were fixed with 4% paraformadehyde (Electron Microscopy Sciences) for 10 minutes and permeabilized with 0.1% Triton™ X-100 (Sigma-Aldrich). Cells were then stained with the primary antibody (OCT4, BD Biosciences; SOX2, R&D; FOXA2, Abnova; cTNT, Thermo Fisher Scientific; TUBB3, Cell Signaling; PDX1, R&D; NKX6.1, DSHB) for 25 minutes followed by the secondary antibody for 25 minutes at 4° C. Stained cells were analyzed on a FACSCanto™ II (BD) or FACS Fortessa™ (BD) flow cytometer.
Statistical analysis was performed using the JMP software (SAS). Parametric tests were used for qpcr, doubling time, and maximum density experiments, with the Student's T-test used for 2 treatment experiments and Tukey's HSD test used for experiments with 3 or more treatments. A non-parametric test (Kruskal-Wallis) was used for colony formation experiments since this assay was developed specifically for this study. […] The linear regression model was developed in Excel (Microsoft®).
To test this hypothesis, a 96 well plate platform was designed to screen the effects of medium components on 5i-hPSC pluripotency in suspension cultures and in feeder-free adherent cultures (FIG. 8A). To examine the effects of adherent culture on pluripotency, a Geltrex™ coating was used to obtain an adherent culture condition in the absence of a feeder layer. […]

PSC (HES2) [1] = experiment: Stirred tank bioreactor suspension culture of PSC with dextran sulfate; details: stirred tank bioreactors seeded with DS, 3 passages
Procedure: Six well culture plates were pre-coated with 5% Pluronic F-68® (Thermo Fisher Scientific) for 30 minutes at 37° C. or overnight at 4° C. Dissociation of PSC to single cells was carried out by TrypLE™ Express (Thermo Fisher Scientific) treatment for 5 minutes at room temperature. Single cells were seeded into the Pluronic F-68® coated 6-well plates that were then placed on an orbital shaker with 10 μM Y-27632 (Reagents Direct) in normoxic (21% 02) conditions. Cells were seeded at densities of 2×10^5 cells/mL unless otherwise noted. Medium was exchanged by angling the plate at a 45° angle and allowing aggregates to settle onto the bottom edge. Two days after seeding, half of the growth medium was removed and replaced each day. Cells were harvested at the end of culture by dissociation with a 5 minute TrypLE™ treatment at 37° C. and cell counts were performed by Trypan Blue exclusion (Thermo Fisher Scientific). Bioreactor experiments were conducted following manufacturer instructions for operating the Ambr™-24 bioreactor system (Sartorius). Cell dissociation and medium exchange were performed as described above. […] Aggregates were analyzed using the Mastersizer™ 3000 particle analyzer (Malvern) according to manufacturer's instructions. […]
Apoptosis analysis was conducted using Annexin V staining. […] Cells were analyzed on a FACS Canto™ II (BD) or FACS Fortessa™ (BD) flow cytometer. […]

HES2 and H9 cell lines = experiment: 4i suspension culture supplemented with dextran sulfate; details: dextran sulfate at seeding
Procedure: HES2 and H9 hPSC were cultured in adherent conditions in 5i medium for >5 passages. Cells were dissociated with TrypLE™ as described previously and seeded as single cells into 4i medium in the presence of ROCK inhibitor into orbital shaker suspension culture plates (pre-treated with 5% Pluronic® F-68) in the presence of dextran sulfate at seeding. Half of the medium volume was exchanged every day starting on the second day by tilting the plate at a 45 degree angle and allowing cells to settle before removing half of the medium and replenishing it with fresh 4i medium without dextran sulfate.

PSC = experiment: Karyotype and germ layer differentiation of DS treated PSC
Procedure: Six well culture plates were pre-coated with 5% Pluronic F-68® (Thermo Fisher Scientific) for 30 minutes at 37° C. or overnight at 4° C. Dissociation of PSC to single cells was carried out by TrypLE™ Express (Thermo Fisher Scientific) treatment for 5 minutes at room temperature. […] Cells were seeded at densities of 2×10^5 cells/mL unless otherwise noted. Medium was exchanged by angling the plate at a 45° angle and allowing aggregates to settle onto the bottom edge. Two days after seeding, half of the growth medium was removed and replaced each day. Cells were harvested at the end of culture by dissociation with a 5 minute TrypLE™ treatment at 37° C. and cell counts were performed by Trypan Blue exclusion (Thermo Fisher Scientific). […] Aggregates were dissociated and seeded into adherent conditions after 3 passages in suspension with DS. Directed differentiation into all three germ layers was performed as described previously for endoderm^40, mesoderm^41, and ectoderm^42 lineages. G-Band karyotyping was performed by WiCell.

PSC (HES2) [2] = experiment: Orbital shaker suspension culture of PSC aggregates with dextran sulfate; details: for aggregate control properties in PSC: data not shown
Procedure: In brief, HES2 were cultured on Geltrex™ LDEV-Free Reduced Growth Factor Basement Membrane Matrix (Thermo Fisher Scientific, 1:50 dilution in DMEM) coated plates in Nutristem® hESC XF Culture Medium (Biological Industries, “NS”) or E8 Medium (Thermo Fisher Scientific), supplemented with 1× Penicillin-Streptomycin (Thermo Fisher Scientific). Plates were coated with Geltrex™ for 30 minutes at 37° C. Cells were passaged 1:24 every 6 days by dissociation with TrypLE™ Express (Thermo Fisher Scientific) at 37° C. for 4-5 minutes. All cell line stocks were confirmed negative for mycoplasma contamination. Conversion to a “naïve” hPSC state was performed as described previously^35. Dextran sulfate compounds (DS, Sigma) were prepared by dilution in deionized water at a stock concentration of 100 mg/mL followed by filter sterilization.
Six well culture plates were pre-coated with 5% Pluronic F-68® (Thermo Fisher Scientific) for 30 minutes at 37° C. or overnight at 4° C. Dissociation of PSC to single cells was carried out by TrypLE™ Express (Thermo Fisher Scientific) treatment for 5 minutes at room temperature. Single cells were seeded into the Pluronic F-68® coated 6-well plates that were then placed on an orbital shaker with 10 μM Y-27632 (Reagents Direct) in normoxic (21% 02) conditions. Cells were seeded at densities of 2×10^5 cells/mL unless otherwise noted. Medium was exchanged by angling the plate at a 45° angle and allowing aggregates to settle onto the bottom edge. Two days after seeding, half of the growth medium was removed and replaced each day. Cells were harvested at the end of culture by dissociation with a 5 minute TrypLE™ treatment at 37° C. and cell counts were performed by Trypan Blue exclusion (Thermo Fisher Scientific). Bioreactor experiments were conducted following manufacturer instructions for operating the Ambr™-24 bioreactor system (Sartorius). Cell dissociation and medium exchange were performed as described above. Bioreactors were operated at 450 rpm and seeded with 4×10^5 cells/mL unless otherwise noted. Aggregates were analyzed using the Mastersizer™ 3000 particle analyzer (Malvern) according to manufacturer's instructions. Unless otherwise noted, the 560 μm aperture was used for analysis. Aggregates were dissociated and seeded into adherent conditions after 3 passages in suspension with DS. Directed differentiation into all three germ layers was performed as described previously for endoderm^40, mesoderm^41, and ectoderm^42 lineages. G-Band karyotyping was performed by WiCell.
Statistical analysis was performed in Excel software (Microsoft®). […] Coefficient of variation was calculated by estimating the volume of each aggregate from its diameter, calculating the standard deviation of each treatment, and normalizing to the mean. […]

H9 hPSC = experiment: Aggregation control by DS in conventional and naive conditions; details: conventional and naive pluripotent states

In the case of `O=C(NOC[C@H](O)CO)c1ccc(F)c(F)c1Nc1ccc(I)cc1F` [PD, N-[(2R)-2,3-dihydroxypropoxy]-3,4-difluoro-2-[(2-fluoro-4-iodophenyl)amino]-benzamide], the “correlation of PD level to pluripotent phenotype” value (5i-hPSC; feeder-free adherent and suspension) is reported as “negatively correlated” and the “linear regression coefficient of PD level on OCT4/SOX2 expression” value (5i-hPSC; model with growth format and interaction, 56 observations) is reported as −27.0584.
With dextran sulfate [DS] the “expression of pluripotency markers Oct4 and Sox2” value (PSC (HES2) [1]) was greater than 85%, the “mean aggregate size and variance relative to untreated conditions” value (HES2 and H9 cell lines) was “both observed to decrease” and the karyotype (PSC; 9 passages (5 adherent, 4 suspension)) was “retained a normal karyotype”. For the same compound, the “differentiation to three germ layers” value (PSC; after 9 passages with DS) was “maintained the ability to differentiate to cell types from all three germ layers”, the “homogeneity of aggregate sizes” value (PSC (HES2) [2]; orbital shaker, 4 days) was “reduced standard deviations and lower coefficients of variation of aggregate volume” and the aggregate diameter (PSC (HES2) [2]; orbital shaker, DS of 4, 15 and 40 kDa at varied concentration) was “significantly reduced diameters in a dose-dependent fashion”. For the same compound, the control of aggregation (H9 hPSC) was “able to control H9 hPSC aggregation in both pluripotent states”.
In the case of heparin, the “aggregate control properties in PSC” value (PSC (HES2) [2]) is reported as “displayed aggregate control properties”.
In the case of pentosan polysulfate, the “aggregate control properties in PSC” value (PSC (HES2) [2]) is reported as “displayed aggregate control properties”.
